Test results published in ChEMBL document CHEMBL5537157, “Selective Antitumor Effect and Lower Toxicity of Mitochondrion-Targeting Derivatization of Triptolide” (J Med Chem, 2024).
Activity calls are given as the source filed them. The rule behind the calls is not given here.

Tests used:
[1] = Developmental toxicity in zebrafish AB zygotes assessed as decrease in hatching rate at 2 to 4 uM treated at 6 hrs post-fertilization measured at 24 to 72 hrs post-fertilization; set-up: species or system Danio rerio; conditions: in vivo, dose lower 2 µM, time lower 18 hrs, dose upper 4 µM, time upper 66 hrs
[2] = Renal toxicity in fluorescent transgenic zebrafish at 0.5 to 1 uM treated for 48 hrs by fluorescence microscopy; set-up: species or system Danio rerio; conditions: in vivo, dose 0.5-1 µM
[3] = Toxicity in zebrafish embryo assessed as damage effect in liver development at 2 uM with replacement of new growth solution daily by fluorescence microscopy relative to control; type: tissue-based, Danio rerio; conditions: in vivo
NCI-H1975 [4] = assay: Induction of apoptosis in human NCI-H1975 cells assessed as nuclear shrinkage at 400 nM incubated for 24 hrs by DAPI staining based analysis; type: functional, cell-based
[5] = Renal toxicity in zebrafish assessed as FITC dye residue at 2 uM treated for 24 hrs followed by dye treatment measured after 6 hrs by fluorescence microscopy; set-up: species or system Danio rerio; conditions: in vivo, 30 h
A549 = assay: Cytotoxicity against human A549 cells assessed as cell growth inhibition incubated for 48 hrs by MTT assay; type: functional, cell-based
HepG2 = assay: Cytotoxicity against human HepG2 cells assessed as cell growth inhibition at 4.5 to 10 nM incubated for 48 hrs by MTT assay relative to control; type: functional; conditions: dose 4.5-10 nM
PC-3 = assay: Cytotoxicity against human PC-3 cells assessed as cell growth inhibition at 4.5 to 10 nM incubated for 48 hrs by MTT assay relative to control; type: functional; conditions: dose 4.5-10 nM
[6] = Renal toxicity in zebrafish assessed as FITC dye residue at 0.25 to 1 uM treated for 24 hrs followed by dye treatment measured after 6 hrs by fluorescence microscopy; set-up: species or system Danio rerio; conditions: in vivo, 30 h, dose 0.25-1 µM
MCF7 = assay: Cytotoxicity against human MCF7 cells assessed as cell growth inhibition at 4.5 to 10 nM incubated for 48 hrs by MTT assay relative to control; type: functional; conditions: dose 4.5-10 nM
NCI-H1975 [7] = assay: Inhibition of cell proliferation in human NCI-H1975 cells xenografted in zebrafish at 1 uM measured after 48 hrs by confocal microscopy; type: functional, cell-based
[8] = Toxicity in zebrafish xenografted with human NCI-H1975 cells assessed as animal death at 2 uM; set-up: species or system Danio rerio

Compound | Activity [1] | Activity [2] | Activity [3] | Activity (NCI-H1975 [4]) | Activity [5] | inhibition (A549) | inhibition (INH) (HepG2) | Imax (PC-3) | Activity [6] | Imax (MCF7) | inhibition (NCI-H1975 [7]) | Activity [8]
CC(C)[C@]12O[C@H]1[C@@H]1O[C@]13[C@]1(O[C@H]1C[C@H]1C4=C(CC[C@@]13C)C(=O)OC4)[C@@H]2OC(=O)CCCCCCCC[n+]1ccc(/C=C/c2c[nH]c3ccccc23)cc1.[Br-] | Toxic | Non-Toxic | 58.21% | Active | Toxic |  |  |  |  |  |  | 
CC(C)[C@]12O[C@H]1[C@@H]1O[C@@]13[C@@]1(C)CCC4=C(COC4=O)[C@@H]1C[C@@H]1O[C@@]13C2=O [TRIPTONIDE] |  |  |  |  |  | Dose-Dependent Effect | 80% | ~60% | Toxic | ~40% | Active | Toxic
